Laboratory results as given in patent publication US8691865B2 (AbbVie Inc., priority 2008, dated 2014).

Tests used:
[1] = test system: Sprague Dawley rats; assay: Capsaicin induced secondary mechanical hyperalgesia model; type: in vivo; details: po, 1 h, read-out: % inhibition @ 30 mg/kg p.o.; 30 mg/kg p.o. 60 minutes before testing; SMH measured 180 minutes after capsaicin; rat
Protocol: (ii) In Vivo Data—Capsaicin Induced Secondary Mechanical Hyperalgesia Model:
Sprague Dawley rats were briefly restrained, and capsaicin was administered at 10 μg in 10 μL of vehicle by intraplantar injection into the center of the right hind paw. Secondary mechanical hyperalgesia (SMH) was measured at the heel away from the site of injection 180 minutes following capsaicin exposure. Compounds and gabapentin (positive control), were administered p.o. 60 minutes before testing (2 hours after capsaicin) or i.p. 30 minutes before testing (2.5 hours after capsaicin). SMH was measured using calibrated von Frey filaments (Stoelting, Woodale, Ill.). Following the 1 hour habituation in the testing room, rats were moved to individual plexiglass chambers that sit on top of a wire mesh to allow for access for stimulation of the plantar surface of the hind paws. Rats were allowed to acclimate to the new chambers for 15 minutes before the onset of testing. The paw withdrawal threshold was determined by increasing and decreasing stimulus intensity (force: g) and calculated using Dixon's up-down method (Chaplan, S. R.; Bach, F. W.; Pogrel, J. W.; Chung, J. M.; Yaksh, T. L.; J. Neuroscience Methods 1994, 53(1), 55-63.). The filaments (maximum force of 15.0 g) were held in place for 8 seconds or until there was a withdrawal response from the mechanical stimulation.

[2] = target: human Cav2.2 (Homo sapiens, UniProt Q00975); assay: Assessment of calcium channel activity using FLIPR (Ca2+ influx in IMR32 cells); type: cell-based
Procedure, shortened: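 IC50 values derive from nonlinear sigmoidal fitting of percent inhibition, relative to inhibitor-free activity, of Ca2+ influx read by FLIPR. Cells were IMR32 human neuroblastoma, plated at 1−1.2×10^5 per well and grown 48 h at 37 °C.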

[3] = test system: Sprague Dawley rats; assay: Analgesic effect against neuropathic pain, Bennett model (chronic constriction injury); type: in vivo; details: Rattus norvegicus, 1 h; 30 mg/kg po; mechanical allodynia 60 minutes after administration; CCI rats; read-out: % MPE
Protocol: (iii) In Vivo Data—Determination of Analgesic Effect Against Neuropathic Pain—Bennett Model
Animals were prepared for testing, by use of a surgical procedure that induces neuropathic pain in one paw. IACUC guidelines for rodent survival surgery are followed. All surgical procedures are conducted on a clean, uncluttered surgical station. The area is wiped with a 70% ethanol solution before and after use. All instruments are sterilized by either autoclave or chemical sterilant (such as 2% glutaraldehyde >10 hr). Surgeons wear sterile gloves (for the initial procedure), clean lab coat or scrubs, hairnet or cap, and a half-mask respirator (when not working under a hood). Surgeons thoroughly wash their hands prior to donning sterile gloves. Gloves are disinfected in-between animals by cleansing with povidone iodine, chlorhexidine or 70% alcohol for at least 30 seconds. If multiple surgeries are performed, the instruments are cleaned and sterilized between procedures with hot glass beads (>10 seconds). To prevent thermal or chemical burns, the instruments are cooled by rinsing in sterile saline before use.
To minimize post-operative dehydration/maintain blood volume during the surgery, warmed sterile saline or Lactate Ringers solution at 10-15 mL/kg is administered subcutaneously immediately before or after surgery. This facilitates better renal function and presumably anesthesia product excretion post surgery. For all surgical procedures, anesthesia is induced with 4-5% isoflurane. Anesthesia is be maintained during surgery with 1-3% isoflurane. Following induction, the surgical site is carefully shaved and the exposed area is aseptically prepared with povidone-iodine scrub solution and 70% ethanol 2-3 times.
After site sterilization and anesthetic procedures outline above are completed, a 1.5 cm incision is made at the mid-thigh level to expose the biceps femoris and gluteous superficialis (right side), which are then separated by blunt dissection. The common sciatic nerve is exposed, isolated, and loosely ligated by four 5-0 chromic gut ligatures with <1 mm spacing between each. The surgical site is closed in layers—muscle is closed with 6.0 absorbable sutures, and the skin closed with wound clips. Animals are allowed to recover on a warming plate and are returned to their home cages when fully ambulatory. Animals are not be used for testing until at least 10 days following surgery.
Filament strengths used are: 0.4, 0.6, 1.0, 2, 4, 6, 8, and 15 g. […] Filaments are applied perpendicular to the mid-plantar paw surface with enough force to cause slight buckling and held in place for 6-8 seconds. Positive responses include an abrupt withdrawal of the paw from the stimulus or flinching behavior immediately following removal of the stimulus. The maximum force applied will be 15 g. […] All compounds were orally administered in 10% dimethyl sulfoxide/polyethylene glycol at a volume of 2.0 mL/kg, and mechanical allodynia was determined 60 minutes following compound administration. Data are reported as log g values and the percentage of maximum possible effect (% MPE) is calculated using log g values with the formula: % MPE=(log [observed PWT in grams]−log [mean PWT vehicle])/(log [15]−log [mean PWT vehicle])*100 All statistical procedures are run on log g values.

Chain of human Cav2.2 (Q00975 whole entry): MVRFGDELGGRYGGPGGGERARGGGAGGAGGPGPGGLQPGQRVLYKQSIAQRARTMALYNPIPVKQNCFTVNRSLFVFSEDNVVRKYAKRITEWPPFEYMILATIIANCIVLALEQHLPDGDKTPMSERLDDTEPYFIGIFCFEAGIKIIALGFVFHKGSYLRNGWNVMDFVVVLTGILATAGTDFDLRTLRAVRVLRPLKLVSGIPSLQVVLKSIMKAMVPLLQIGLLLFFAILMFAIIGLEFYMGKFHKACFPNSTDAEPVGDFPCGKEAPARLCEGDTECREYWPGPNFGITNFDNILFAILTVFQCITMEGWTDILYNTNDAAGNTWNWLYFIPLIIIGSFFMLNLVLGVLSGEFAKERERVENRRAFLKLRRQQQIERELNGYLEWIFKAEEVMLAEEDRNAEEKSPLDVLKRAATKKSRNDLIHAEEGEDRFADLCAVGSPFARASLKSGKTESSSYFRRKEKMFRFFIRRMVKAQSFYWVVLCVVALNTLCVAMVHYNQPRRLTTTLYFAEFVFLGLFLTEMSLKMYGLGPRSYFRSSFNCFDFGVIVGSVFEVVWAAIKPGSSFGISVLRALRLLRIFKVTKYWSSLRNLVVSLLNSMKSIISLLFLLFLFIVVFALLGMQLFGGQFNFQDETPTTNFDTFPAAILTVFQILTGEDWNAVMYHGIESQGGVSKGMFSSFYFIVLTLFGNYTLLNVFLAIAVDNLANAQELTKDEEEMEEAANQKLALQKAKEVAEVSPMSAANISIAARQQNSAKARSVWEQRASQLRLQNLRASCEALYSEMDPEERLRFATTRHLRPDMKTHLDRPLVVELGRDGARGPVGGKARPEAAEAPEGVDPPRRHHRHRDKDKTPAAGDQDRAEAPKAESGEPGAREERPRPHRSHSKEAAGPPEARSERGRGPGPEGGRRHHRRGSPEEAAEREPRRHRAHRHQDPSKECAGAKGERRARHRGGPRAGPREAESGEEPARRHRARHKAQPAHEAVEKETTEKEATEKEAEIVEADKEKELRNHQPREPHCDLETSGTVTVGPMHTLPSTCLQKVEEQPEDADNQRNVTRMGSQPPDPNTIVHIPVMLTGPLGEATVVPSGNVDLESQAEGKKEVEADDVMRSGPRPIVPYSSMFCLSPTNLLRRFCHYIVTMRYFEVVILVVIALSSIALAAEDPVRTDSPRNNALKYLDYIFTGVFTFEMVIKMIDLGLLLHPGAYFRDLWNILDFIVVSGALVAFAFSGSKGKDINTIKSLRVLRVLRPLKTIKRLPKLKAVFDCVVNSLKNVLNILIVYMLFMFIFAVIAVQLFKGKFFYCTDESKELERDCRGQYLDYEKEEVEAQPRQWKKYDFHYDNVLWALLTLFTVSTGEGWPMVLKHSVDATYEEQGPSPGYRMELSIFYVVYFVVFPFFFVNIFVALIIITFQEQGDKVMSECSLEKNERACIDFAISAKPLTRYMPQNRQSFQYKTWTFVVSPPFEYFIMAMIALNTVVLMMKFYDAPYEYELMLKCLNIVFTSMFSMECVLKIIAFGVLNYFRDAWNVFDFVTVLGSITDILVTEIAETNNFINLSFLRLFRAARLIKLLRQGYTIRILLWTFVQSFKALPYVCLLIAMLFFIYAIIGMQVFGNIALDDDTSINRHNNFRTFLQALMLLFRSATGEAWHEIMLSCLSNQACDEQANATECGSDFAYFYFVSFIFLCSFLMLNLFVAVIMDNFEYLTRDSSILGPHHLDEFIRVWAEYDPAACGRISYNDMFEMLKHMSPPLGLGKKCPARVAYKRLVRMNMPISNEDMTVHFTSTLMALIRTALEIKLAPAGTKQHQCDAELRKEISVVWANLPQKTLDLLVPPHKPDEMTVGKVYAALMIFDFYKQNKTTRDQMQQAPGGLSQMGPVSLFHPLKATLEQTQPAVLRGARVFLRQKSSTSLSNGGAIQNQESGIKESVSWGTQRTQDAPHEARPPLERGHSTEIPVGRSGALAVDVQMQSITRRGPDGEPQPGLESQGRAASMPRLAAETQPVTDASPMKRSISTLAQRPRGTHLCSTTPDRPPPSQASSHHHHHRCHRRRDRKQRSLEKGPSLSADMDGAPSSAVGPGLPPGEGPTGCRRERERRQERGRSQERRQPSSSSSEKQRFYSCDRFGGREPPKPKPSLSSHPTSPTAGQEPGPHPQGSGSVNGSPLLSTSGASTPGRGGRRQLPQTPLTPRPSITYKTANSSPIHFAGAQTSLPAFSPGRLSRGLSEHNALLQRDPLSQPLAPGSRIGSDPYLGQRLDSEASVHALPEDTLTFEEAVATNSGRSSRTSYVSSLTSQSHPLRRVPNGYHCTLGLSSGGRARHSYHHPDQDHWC
Chain of human Cav2.2 (P54289 25-956 partner limits assumed): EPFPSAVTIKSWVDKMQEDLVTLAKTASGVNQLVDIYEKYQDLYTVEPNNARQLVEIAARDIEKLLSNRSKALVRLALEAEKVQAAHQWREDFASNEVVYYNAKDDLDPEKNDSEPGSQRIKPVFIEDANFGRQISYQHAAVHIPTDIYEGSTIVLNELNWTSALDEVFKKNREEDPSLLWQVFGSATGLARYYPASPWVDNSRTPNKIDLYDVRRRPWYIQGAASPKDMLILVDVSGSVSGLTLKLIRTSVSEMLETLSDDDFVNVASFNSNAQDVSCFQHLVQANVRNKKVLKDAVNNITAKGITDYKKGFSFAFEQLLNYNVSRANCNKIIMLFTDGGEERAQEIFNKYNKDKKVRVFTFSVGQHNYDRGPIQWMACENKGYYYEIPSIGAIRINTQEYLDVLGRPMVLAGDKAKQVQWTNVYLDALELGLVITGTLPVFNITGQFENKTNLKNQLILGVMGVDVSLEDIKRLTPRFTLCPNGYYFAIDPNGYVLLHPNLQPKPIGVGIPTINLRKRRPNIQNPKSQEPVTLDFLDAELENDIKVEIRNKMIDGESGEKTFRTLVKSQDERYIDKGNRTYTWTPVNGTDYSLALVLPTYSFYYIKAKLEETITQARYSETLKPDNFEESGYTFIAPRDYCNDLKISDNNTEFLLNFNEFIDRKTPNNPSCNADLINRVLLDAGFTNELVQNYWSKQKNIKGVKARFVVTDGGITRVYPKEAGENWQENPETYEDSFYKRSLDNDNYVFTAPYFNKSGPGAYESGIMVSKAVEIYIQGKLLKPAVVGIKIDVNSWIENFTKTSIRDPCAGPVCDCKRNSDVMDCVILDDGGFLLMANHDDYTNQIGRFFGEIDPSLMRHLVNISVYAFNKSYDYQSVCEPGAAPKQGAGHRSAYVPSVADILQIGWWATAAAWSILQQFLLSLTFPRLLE
Chain of human Cav2.2 (P54289 957-1103 partner limits assumed): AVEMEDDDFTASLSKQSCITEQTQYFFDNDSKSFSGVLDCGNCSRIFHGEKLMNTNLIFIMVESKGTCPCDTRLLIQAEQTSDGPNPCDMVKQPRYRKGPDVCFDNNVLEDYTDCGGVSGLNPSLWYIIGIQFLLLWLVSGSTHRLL
Chain of human Cav2.2 (P54284 whole entry partner): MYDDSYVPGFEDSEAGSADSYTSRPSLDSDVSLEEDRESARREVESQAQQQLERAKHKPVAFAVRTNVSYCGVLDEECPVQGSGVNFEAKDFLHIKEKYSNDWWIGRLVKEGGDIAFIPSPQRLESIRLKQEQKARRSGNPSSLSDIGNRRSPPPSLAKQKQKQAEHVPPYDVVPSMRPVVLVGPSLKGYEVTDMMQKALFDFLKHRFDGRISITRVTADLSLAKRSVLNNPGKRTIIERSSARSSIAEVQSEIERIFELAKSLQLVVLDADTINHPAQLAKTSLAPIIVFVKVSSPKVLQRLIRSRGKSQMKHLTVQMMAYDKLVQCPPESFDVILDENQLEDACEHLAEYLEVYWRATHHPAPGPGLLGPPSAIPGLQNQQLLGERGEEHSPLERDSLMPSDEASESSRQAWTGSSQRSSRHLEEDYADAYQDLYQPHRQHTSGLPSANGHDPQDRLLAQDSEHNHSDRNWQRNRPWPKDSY

SMILES	inhibition in vivo at 30 mg/kg [1] [%]	IC50 [2] [nM]	inhibition in vivo at 30 mg/kg [3] [%]
CN[C@@H](CC(C)(C)C)C(=O)N1C[C@H]2CC[C@H](NC(=O)C(c3ccc(F)cc3)c3ccc(F)cc3)[C@H]2C1 [Example 461, N-[(3aR,4S,6aS)-2-(N,4-dimethyl-L-leucyl)octahydrocyclopenta[c]pyrrol-4-yl]-2,2-bis(4-fluorophenyl)acetamide]	43	1460	
CN[C@@H](CC(C)(C)C)C(=O)N[C@H]1CC[C@@H]2CN(c3cccc(C(F)(F)F)n3)C[C@@H]21 [Example 587, N^2,4-dimethyl-N-{(3aR,4S,6aS)-2-[6-(trifluoromethyl)pyridin-2-yl]octahydrocyclopenta[c]pyrrol-4-yl}-L-leucinamide]	16	390	
O=C(N[C@H]1CC[C@@H]2CN(c3cccc(C(F)(F)F)n3)C[C@@H]21)[C@@H]1CCCCN1 [Example 597, (2S)-N-{(3aR,4S,6aS)-2-[6-(trifluoromethyl)pyridin-2-yl]octahydrocyclopenta[c]pyrrol-4-yl}piperidine-2-carboxamide]	54	1300	
O=C(N[C@H]1CC[C@@H]2CN(c3cccc(C(F)(F)F)n3)C[C@@H]21)[C@@H]1C[C@@H]2CCCC[C@@H]2N1 [Example 593, (2S,3aS,7aS)-N-{(3aR,4S,6aS)-2-[6-(trifluoromethyl)pyridin-2-yl]octahydrocyclopenta[c]pyrrol-4-yl}octahydro-1H-indole-2-carboxamide]	76	520	
O=C(N[C@H]1CC[C@@H]2CN(c3cccc(C(F)(F)F)n3)C[C@@H]21)C1(O)CCCC1 [Example 573, 1-hydroxy-N-{(3aR,4S,6aS)-2-[6-(trifluoromethyl)pyridin-2-yl]octahydrocyclopenta[c]pyrrol-4-yl}cyclopentanecarboxamide]	57	1680	
CN[C@@H](CC(C)C)C(=O)N[C@H]1CC[C@@H]2CN(c3ccc(C(F)(F)F)cn3)C[C@@H]21 [Example 600, N^2-methyl-N-{(3aR,4S,6aS)-2-[5-(trifluoromethyl)pyridin-2-yl]octahydrocyclopenta[c]pyrrol-4-yl}-L-leucinamide]	63	2860	40
Fc1ccc2[nH]c(CN[C@H]3CC[C@@H]4CN(c5cccc(C(F)(F)F)n5)C[C@@H]43)cc2c1 [Example 613, (3aR,4S,6aS)-N-[(5-fluoro-1H-indol-2-yl)methyl]-2-[6-(trifluoromethyl)pyridin-2-yl]octahydrocyclopenta[c]pyrrol-4-amine]		910	61
CCC[C@H](NC)C(=O)N[C@H]1CC[C@@H]2CN(c3ccc(C(F)(F)F)cn3)C[C@@H]21 [Example 599, N^2-methyl-N-{(3aR,4S,6aS)-2-[5-(trifluoromethyl)pyridin-2-yl]octahydrocyclopenta[c]pyrrol-4-yl}-L-norvalinamide]	32	4430	
O=C(N[C@H]1CC[C@@H]2CN(c3cccc(C(F)(F)F)n3)C[C@@H]21)[C@@H]1C[C@@H](F)CN1 [Example 592, (4R)-4-fluoro-N-{(3aR,4S,6aS)-2-[6-(trifluoromethyl)pyridin-2-yl]octahydrocyclopenta[c]pyrrol-4-yl}-L-prolinamide]	54	4500	
O=C(N[C@H]1CC[C@@H]2CN(c3cccc(C(F)(F)F)n3)C[C@@H]21)[C@@H]1CCCN1 [Example 598, N-{(3aR,4S,6aS)-2-[6-(trifluoromethyl)pyridin-2-yl]octahydrocyclopenta[c]pyrrol-4-yl}-L-prolinamide]	54	2570	
